From paper PMC6764862 (Xenobiotica; the fate of foreign compounds in biological …, 2019)
Like-named read-outs stand apart in the source and are kept apart here.

Experiments:
human AhR (hAhR) = biological target: T1, human AhR (hAhR) (Homo sapiens, UniProt P35869); test: AhR-dependent pXRE-SV40-Luc luciferase reporter in HepG2 cells; type: cell-based; settings: for Relative effect potency (REP) HepG2: EC50-based, relative to TCDD, human system; for maximum response, luciferase activity: concentration-response
T1 sequence (P35869 11-848): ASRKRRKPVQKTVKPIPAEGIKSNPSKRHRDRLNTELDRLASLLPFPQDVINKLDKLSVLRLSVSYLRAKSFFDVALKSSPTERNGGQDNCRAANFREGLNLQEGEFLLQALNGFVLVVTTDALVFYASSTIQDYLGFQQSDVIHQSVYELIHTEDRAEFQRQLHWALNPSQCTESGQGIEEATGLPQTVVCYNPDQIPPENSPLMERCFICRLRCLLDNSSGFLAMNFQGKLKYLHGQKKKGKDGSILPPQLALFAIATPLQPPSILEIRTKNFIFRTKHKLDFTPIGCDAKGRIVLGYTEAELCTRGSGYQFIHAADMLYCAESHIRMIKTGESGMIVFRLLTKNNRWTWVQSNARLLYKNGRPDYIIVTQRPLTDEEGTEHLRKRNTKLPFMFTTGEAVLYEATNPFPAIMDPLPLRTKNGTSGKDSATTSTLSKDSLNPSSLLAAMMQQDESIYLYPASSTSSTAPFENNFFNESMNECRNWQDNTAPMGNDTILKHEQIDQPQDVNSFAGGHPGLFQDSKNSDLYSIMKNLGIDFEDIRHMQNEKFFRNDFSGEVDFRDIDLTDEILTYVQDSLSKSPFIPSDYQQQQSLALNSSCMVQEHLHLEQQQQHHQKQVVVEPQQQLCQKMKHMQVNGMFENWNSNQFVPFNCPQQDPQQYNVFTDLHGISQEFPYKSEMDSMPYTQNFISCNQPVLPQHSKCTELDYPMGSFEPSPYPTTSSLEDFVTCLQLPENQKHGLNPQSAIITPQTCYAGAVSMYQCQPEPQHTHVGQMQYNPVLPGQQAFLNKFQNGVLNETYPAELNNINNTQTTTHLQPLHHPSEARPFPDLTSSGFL

mouse AhR (mAhR) [1] = biological target: T2, mouse AhR (mAhR) (Mus musculus, UniProt P30561); settings: for Relative effect potency (REP) Hepa1c1c7: EC50-based, relative to TCDD, murine system; for maximum response, luciferase activity: concentration-response
T2 sequence (P30561 10-848): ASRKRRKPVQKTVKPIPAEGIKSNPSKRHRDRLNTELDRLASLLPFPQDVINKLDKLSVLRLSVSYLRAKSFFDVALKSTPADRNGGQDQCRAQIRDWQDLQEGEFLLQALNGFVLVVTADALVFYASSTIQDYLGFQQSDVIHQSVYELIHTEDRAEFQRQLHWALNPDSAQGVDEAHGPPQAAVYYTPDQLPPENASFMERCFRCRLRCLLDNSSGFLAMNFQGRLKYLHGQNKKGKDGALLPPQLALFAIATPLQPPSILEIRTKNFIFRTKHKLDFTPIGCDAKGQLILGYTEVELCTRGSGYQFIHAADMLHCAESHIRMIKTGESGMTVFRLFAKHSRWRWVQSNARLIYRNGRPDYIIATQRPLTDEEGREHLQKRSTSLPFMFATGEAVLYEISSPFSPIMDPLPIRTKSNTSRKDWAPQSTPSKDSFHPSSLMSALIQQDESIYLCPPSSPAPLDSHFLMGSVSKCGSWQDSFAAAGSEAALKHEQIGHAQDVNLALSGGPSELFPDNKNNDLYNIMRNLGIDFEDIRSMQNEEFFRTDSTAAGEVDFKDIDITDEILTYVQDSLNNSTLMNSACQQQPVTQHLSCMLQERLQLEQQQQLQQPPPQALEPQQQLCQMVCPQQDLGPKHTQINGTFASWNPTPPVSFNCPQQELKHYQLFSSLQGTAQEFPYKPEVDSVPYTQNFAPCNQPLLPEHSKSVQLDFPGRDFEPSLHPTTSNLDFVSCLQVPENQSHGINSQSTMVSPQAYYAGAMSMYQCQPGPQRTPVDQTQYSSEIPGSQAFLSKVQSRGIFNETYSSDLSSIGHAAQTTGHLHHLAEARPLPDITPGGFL

mouse AhR (mAhR) [2] = settings: for REP ratio Hepa1c1c7/HepG2: mouse REP over human REP
CYP1A1 (AhR target gene) [3] = test: CYP1A1 mRNA induction in primary human hepatocytes; type: cell-based; settings: primary human hepatocytes
Cyp1a1 (AhR target gene) [4] = test: Cyp1a1 mRNA induction in primary mouse hepatocytes; type: cell-based; settings: primary mouse hepatocytes
EGFR = settings: up to; highest potency of all congeners tested; ref Hardesty et al., 2018; cited from earlier work
[5] = test system: CYP1A1 mRNA (AhR target gene); test: CYP1A1 mRNA induction in primary human hepatocytes; type: cell-based; settings: human
[6] = test system: Cyp1a1 mRNA (AhR target gene); test: Cyp1a1 mRNA induction in primary mouse hepatocytes; type: cell-based; settings: male, C57BL/6, mouse
mouse AhR (mAhR) [7] = biological target: T2, mouse AhR (mAhR); test: in vitro; settings: hepa1c1c7 cells
[8] = read-out: EC50 for AhR luciferase reporter activity, HepG2 cells, 24 h treatment

With `Clc1cc(-c2cc(Cl)c(Cl)c(Cl)c2)cc(Cl)c1Cl` [PCB 169] the “Relative effect potency (REP) HepG2” value (human AhR (hAhR)) was ≤ 0.00005, the “WHO 2005 TEF fold higher than the human REP” value (human AhR (hAhR); TEF vs HepG2 REP of this study) was > 300 fold and the EC50 (human AhR (hAhR); [8]) was ≥ 7000 nM. For the same compound, the “Relative effect potency (REP) Hepa1c1c7” value (mouse AhR (mAhR) [1]) was 0.001 and the “REP ratio Hepa1c1c7/HepG2” value (mouse AhR (mAhR) [2]) was ≥ 20.
For `Clc1ccc(-c2cc(Cl)c(Cl)c(Cl)c2Cl)cc1` [PCB 114], the “Relative effect potency (REP) HepG2” value (human AhR (hAhR)) was ≤ 0.00007, the EC50 (human AhR (hAhR); [8]) was ≥ 5000 nM and the “Relative effect potency (REP) Hepa1c1c7” value (mouse AhR (mAhR) [1]) was 0.00004. The “REP ratio Hepa1c1c7/HepG2” value (mouse AhR (mAhR) [2]) was ≥ 0.5.
For `Clc1ccc(-c2ccc(Cl)c(Cl)c2)cc1Cl` [PCB 77], the “Relative effect potency (REP) HepG2” value (human AhR (hAhR)) was ≤ 0.00009, the EC50 (human AhR (hAhR); [8]) was ≥ 4000 nM and the “Relative effect potency (REP) Hepa1c1c7” value (mouse AhR (mAhR) [1]) was 0.0003. The “REP ratio Hepa1c1c7/HepG2” value (mouse AhR (mAhR) [2]) was ≥ 3.3.
For `Clc1ccc(-c2cc(Cl)c(Cl)c(Cl)c2)cc1Cl` [PCB 126], the “Relative effect potency (REP) HepG2” value (human AhR (hAhR)) was 0.002, the luciferase activity increase (human AhR (hAhR); HepG2 cells, 10 μM, 24 h, positive controls) was 42 fold and the “maximum response, luciferase activity” value (human AhR (hAhR); HepG2 cells) was 31.6 fold. The “WHO 2005 TEF fold higher than the human REP” value (human AhR (hAhR); TEF vs HepG2 REP of this study) was 50 fold, the EC50 (human AhR (hAhR); [8]) was 250 ± 150 nM and the “maximal induction of CYP1A1 mRNA” value (CYP1A1 (AhR target gene) [3]) was 45.1 fold. The EC50 (CYP1A1 (AhR target gene) [3]; read-out: EC50 for induction of CYP1A1 mRNA, 24 h) was 195 ± 35 nM, the “maximal induction of Cyp1a1 mRNA” value (Cyp1a1 (AhR target gene) [4]) was 53.3 fold and the “Relative effect potency (REP) Hepa1c1c7” value (mouse AhR (mAhR) [1]) was 0.006. For the same compound, the luciferase activity increase (mouse AhR (mAhR) [1]; Hepa1c1c7 cells, 10 μM, 24 h, positive controls) was 3.7 fold, the “maximum response, luciferase activity” value (mouse AhR (mAhR) [1]; Hepa1c1c7 cells) was 5.9 fold and the “fold more potent (lower EC50) in Hepa1c1c7 than in HepG2, luciferase reporter” value (mouse AhR (mAhR) [2]; mAhR vs hAhR, cell lines) was “approximately 53 fold”. The “REP ratio Hepa1c1c7/HepG2” value (mouse AhR (mAhR) [2]) was 3 and the “IC50 for EGFR inhibition” value (EGFR) was −16.07 ± 0.31 log M.
In the case of `Clc1cc2c(cc1Cl)Oc1cc(Cl)c(Cl)cc1O2` [TCDD, 2,3,7,8-tetrachlorodibenzo-p-dioxin, reference compound], the EC50 (human AhR (hAhR)) is reported as 0.4 ± 0.1 nM, the “Relative effect potency (REP) HepG2” value (human AhR (hAhR)) is reported as 1 and the “maximum response, luciferase activity” value (human AhR (hAhR); HepG2 cells) is reported as 83 fold. For the same compound, the EC50 at 24 h [5] was 0.45 ± 0.34 nM, the EC50 at 24 h [6] was 0.04 ± 0.02 nM and the “REP ratio Hepa1c1c7/HepG2” value (mouse AhR (mAhR) [2]) was 1. The maximal fold induction at 24 h (mouse AhR (mAhR) [7]) was 2.2.
With `Clc1ccc(-c2cc(Cl)c(Cl)c(Cl)c2)cc1` [PCB 81] the “Relative effect potency (REP) HepG2” value (human AhR (hAhR)) was 0.06, the “maximum response, luciferase activity” value (human AhR (hAhR); HepG2 cells) was 34.6 fold and the “WHO 2005 TEF fold lower than the human REP” value (human AhR (hAhR); TEF vs HepG2 REP of this study) was 200 fold. The EC50 (human AhR (hAhR); [8]) was 6.8 ± 2.7 nM, the “Relative effect potency (REP) Hepa1c1c7” value (mouse AhR (mAhR) [1]) was 0.0009 and the “maximum response, luciferase activity” value (mouse AhR (mAhR) [1]; Hepa1c1c7 cells) was 2.3 fold. For the same compound, the “fold higher EC50 in Hepa1c1c7 cells compared to HepG2 cells” value (mouse AhR (mAhR) [2]; luciferase reporter) was “approximately 5 fold” and the “REP ratio Hepa1c1c7/HepG2” value (mouse AhR (mAhR) [2]) was 0.015.
